Measured values published in ChEMBL document CHEMBL1130791, “Novel HIV-protease inhibitors containing beta-hydroxyether and -thioether dipeptide isostere surrogates: modification of the P3 ligand” (Bioorg Med Chem Lett, 1998).
pIC50: −log10 of the molar value. The source made the active and inactive calls. The calls are words filed in the database; no cut-off is given here.

Experiments:
[1] = biological target: T1, Human immunodeficiency virus type 1 protease (Human immunodeficiency virus 1, UniProt Q72874); test: Inhibitory activity against HIV-1 protease using scintillation proximity assay (SPA assay)
CCRF-CEM = test: Compound was evaluated for antiviral activity against the HTLV-III strain of HIV-1 in CEM cell lines; NA means not active; type: functional, cell-based; details: Homo sapiens
[2] = biological target: Human immunodeficiency virus type 1 protease (Human immunodeficiency virus 1) (UniProt Q72874); test: Inhibitory activity against HIV-1 protease using scintillation proximity assay (SPA assay) at a concentration of 500 nM
[3] = biological target: Human immunodeficiency virus type 1 protease (Human immunodeficiency virus 1) (UniProt Q72874); test: Antiviral activity against the HTLV-III strain of HIV-1 in CEM cell lines; type: functional, cell-based; details: CCRF-CEM
[4] = biological target: T1, Human immunodeficiency virus type 1 protease; test: Inhibitory activity against HIV-1 protease using scintillation proximity assay (SPA assay); NA means not active

| Structure (SMILES) | pIC50 [1] | ID50 [3] | further results |
| --- | --- | --- | --- |
| CC(C)(C)NC(=O)c1ccccc1SC[C@@H](O)[C@H](Cc1ccccc1)NC(=O)[C@H](CC(N)=O)NC(=O)c1ccc2ccccc2n1 | 7.05 | – | – |
| CC(C)(C)NC(=O)c1ccccc1OC[C@@H](O)[C@H](Cc1ccccc1)NC(=O)[C@H](CC(N)=O)NC(=O)c1nc2ccccc2nc1O | – | – | ID50 (CCRF-CEM): inactive; inhibition [2]: 36% |
| CC(C)(C)NC(=O)c1ccccc1OC[C@H](O)[C@H](Cc1ccccc1)NC(=O)[C@H](CC(N)=O)NC(=O)c1cnnc2ccccc12 | 6.30 | 13.4 µM | – |
| CC(C)(C)NC(=O)c1ccccc1OC[C@H](O)[C@H](Cc1ccccc1)NC(=O)[C@H](CC(N)=O)NC(=O)c1cc(O)c2ccccc2n1 | 6.39 | 11.2 µM | – |
| CC(C)(C)NC(=O)c1ccccc1OC[C@@H](O)[C@H](Cc1ccccc1)NC(=O)[C@H](CC(N)=O)NC(=O)c1cnc2ccccc2n1 | 7.20 | 0.63 µM | – |
| CC(C)(C)NC(=O)c1ccccc1NC[C@@H](O)[C@H](Cc1ccccc1)NC(=O)[C@H](CC(N)=O)NC(=O)c1ccc2ccccc2n1 | 7.03 | – | – |
| CC(C)(C)NC(=O)c1ccccc1SC[C@H](O)[C@H](Cc1ccccc1)NC(=O)[C@H](CC(N)=O)NC(=O)c1ccc2ccccc2c1 | 6.41 | 13.4 µM | – |
| CC(C)(C)NC(=O)c1ccccc1OC[C@@H](O)[C@H](Cc1ccccc1)NC(=O)[C@H](CC(N)=O)NC(=O)c1ccc2c(c1)C(=O)c1ccccc1C2=O | 7.39 | 0.33 µM | – |
| CC(C)(C)NC(=O)c1ccccc1OC[C@H](O)[C@H](Cc1ccccc1)NC(=O)[C@H](CC(N)=O)NC(=O)c1cnc2ccccc2n1 | 7.00 | 0.61 µM | – |
| CC(C)(C)NC(=O)c1ccccc1OC[C@@H](O)[C@H](Cc1ccccc1)NC(=O)[C@H](CC(N)=O)NC(=O)c1ccc2c(c1)S(=O)(=O)c1ccccc1C2=O | 7.36 | 0.55 µM | – |
| CC(C)(C)NC(=O)c1ccccc1SC[C@H](O)[C@H](Cc1ccccc1)NC(=O)[C@H](CC(N)=O)NC(=O)c1ccccn1 | – | – | IC50 [4]: Not Active |
| CC(C)(C)NC(=O)c1ccccc1OC[C@@H](O)[C@H](Cc1ccccc1)NC(=O)[C@H](CC(N)=O)NC(=O)c1cnnc2ccccc12 | 6.89 | 9.3 µM | – |
| CC(C)(C)NC(=O)c1ccccc1OC[C@H](O)[C@H](Cc1ccccc1)NC(=O)[C@H](CC(N)=O)NC(=O)c1ccc2c(c1)C(=O)c1ccccc1C2=O | 7.05 | 2.3 µM | – |
| CC(C)(C)NC(=O)c1c(OC[C@@H](O)[C@H](Cc2ccccc2)NC(=O)[C@H](CC(N)=O)NC(=O)c2ccc3c(c2)C(=O)c2ccccc2C3=O)ccc2ccccc12 | 7.21 | 0.16 µM | – |
| CC(C)(C)NC(=O)c1c(OC[C@@H](O)[C@H](Cc2ccccc2)NC(=O)[C@H](CC(N)=O)NC(=O)c2ccc3c(c2)S(=O)(=O)c2ccccc2C3=O)ccc2ccccc12 | 7.22 | 0.1 µM | – |
| CC(C)(C)NC(=O)c1ccccc1OC[C@@H](O)[C@H](Cc1ccccc1)NC(=O)[C@H](CC(N)=O)NC(=O)c1ccc2ccccc2n1 | 7.35 | – | – |
| CC(C)(C)NC(=O)c1ccccc1OC[C@@H](O)[C@H](Cc1ccccc1)NC(=O)[C@H](CC(N)=O)NS(=O)(=O)c1ccc2ccccc2c1 | – | – | ID50 (CCRF-CEM): inactive; inhibition [2]: 42% |
| CC(C)(C)NC(=O)c1ccccc1OC[C@H](O)[C@H](Cc1ccccc1)NC(=O)[C@H](CC(N)=O)NC(=O)c1nc2ccccc2nc1O | – | 10.6 µM | inhibition [2]: 35% |
| CC(C)(C)NC(=O)c1ccccc1OC[C@H](O)[C@H](Cc1ccccc1)NC(=O)[C@H](CC(N)=O)NS(=O)(=O)c1ccc2ccccc2c1 | – | – | ID50 (CCRF-CEM): inactive |
